Consider 94 molecules from ChEMBL document CHEMBL2448809, “UCSF DeRisi Lab MMV Box Apicoplast Screening”.

In the assay the test system is Plasmodium falciparum. As to the kind of experiment: MMV: Compounds (1uM) were screened in a 72hr growth assay monitored by flow cytometry both in the presence and absence of supplemental isopentenyl pyrophosphate (IPP) 200uM. Compounds which fail to show anti-malarial activity when chemically rescued by IPP are therefore specific to the apicoplast. The values are expressed as the ratio of the corresponding activity with and without IPP, respectively. The assay is classed as functional, W2.
`CCN1CCCC1CNc1[nH]cnc2c3cc(Cl)ccc3nc1-2` (centres undefined): the Ratio is reported as 0.925.

On to `C[n+]1c2ccccc2nc2ccc(NCCO)cc21`, for which the Ratio came to 0.9178.

Take `O=C(Nc1ccccc1O)c1ccc(Oc2cccc(C(=O)Nc3ccccc3O)c2)cc1`: the Ratio is listed as 0.75.

Turning to `Cc1ccc(-c2cc3c(nn2)-c2ccccc2C3=O)cc1`, the Ratio turned out to be 0.7253.

On to `Cc1ccc(Nc2nc(-c3ccccn3)cs2)cc1`, for which the Ratio was determined as 0.7264.

As for `Oc1ccccc1CN1CCC2(CCCN(Cc3ccccc3F)C2)C1` (centres undefined), the Ratio is 0.9661.

Consider `Cl.N=c1n(CCN2CCCCC2)c2ccccc2n1CC(O)c1cccc(Br)c1` (centres undefined), for which the Ratio came out at 0.8955.

As for `COc1cccc(O)c1CN1CCC2(CCCN(Cc3ccc(F)cc3)C2)C1` (centres undefined), the Ratio amounted to 0.8333.

On to `COc1cccc(Nc2nc(NCCO)c3ccccc3n2)c1.Cl`, for which the Ratio is given as 0.7297.

Consider `Cc1ccc(-c2cc(C(=O)Nc3ccc(S(=O)(=O)N4CCCCC4)cc3)[nH]n2)c(O)c1`, for which the Ratio was determined as 0.875.

With `O=C(NCc1ccco1)C1CCN(S(=O)(=O)c2ccc(Cl)cc2)CC1`, the Ratio was found to be 0.8889.

On to `COc1ccc(C(=O)Nc2ccc3nc(N4CCCCC4)cc(C)c3c2)cc1OC`, for which the Ratio came to 0.7897.

On to `COc1ccc(N2CCN(C(CNC(=O)C3CCCCC3)c3ccc4c(c3)OCO4)CC2)cc1` (centres undefined), for which the Ratio is recorded as 0.9206.

Consider `FC(F)(F)c1ccc(Nc2nnnc3ccccc23)cc1`, for which the Ratio worked out at 1.052.

Take `c1ccc(-c2ccc(-c3nc4ccccc4[nH]3)cc2)cc1`: the Ratio is reported as 1.5.

As to `CCC(C)NCC(O)(c1ccc(Cl)cc1)c1ccc(Cl)cc1` (centres undefined), the Ratio amounted to 1.02.

For `COc1cccc(NC(=O)Cn2c(C)c(C#N)c3ccccc32)c1`, the Ratio is 1.098.

Take `Cn1c(=O)c2cc(C(=O)NCCCN3CCCCCC3)sc2c2ccccc21`: the Ratio was determined as 1.205.

As for `Cc1[nH]c(-c2ccc(F)cc2)cc1C(=O)NC1CCN(Cc2ccccc2)CC1`, the Ratio amounted to 0.8906.

Consider `COc1ccc(CCN2CCC(CN(C)Cc3cnn(-c4ccccc4)c3)CC2)cc1`, for which the Ratio is reported as 0.8571.

Take `O=C(NC(c1ccccc1)c1ccc2cccnc2c1O)c1ccccc1` (centres undefined): the Ratio stood at 1.018.

Turning to `COCCNC(=O)c1ccc(OC2CCN(Cc3ccc(F)c(F)c3)CC2)c(Cl)c1`, the Ratio was 1.063.

Consider `O=C(NC1CCCC1)c1ccc(N2CCC(NCc3cccc(C(F)(F)F)c3)CC2)cc1`, for which the Ratio worked out at 0.8.

Consider `CCOc1cc(Br)c(C(C)NC(=O)c2cccc(OC)c2)cc1OCC` (centres undefined), for which the Ratio came to 0.791.

On to `CC(C)=CCN1CCC(C(=O)Nc2ccc(-c3nc4ccccc4[nH]3)cc2)CC1`, for which the Ratio was 0.8533.

Take `CCN(CC)CCn1c(=N)n(CC(O)c2ccc(Cl)c(Cl)c2)c2ccccc21.Cl` (centres undefined): the Ratio is listed as 0.9508.

As for `CCOc1cc(Cl)c(C(C)NC(=O)c2cccc(OC)c2)cc1OCC` (centres undefined), the Ratio amounted to 0.9259.

Turning to `O=C(CCc1ccco1)NC1CCN(CC2(c3ccc(Cl)cc3)CCC2)CC1`, the Ratio turned out to be 0.875.

Take `FC(F)(F)c1cccc(Nc2nc(-c3ccccc3)nc3ncccc23)c1`: the Ratio was 0.7857.

`CCN1CCN(c2cc(C)c3cc(NC(=O)c4ccc(OC)c(OC)c4)ccc3n2)CC1`: the Ratio was 0.8308.

Consider `Cc1ccc(Cl)cc1N1CCN(CCCNC(=O)C2CCN(c3nc4ccccc4[nH]3)CC2)CC1`, for which the Ratio was found to be 0.814.

Take `COc1ccc(C(=O)Nc2nonc2-c2ccc(OC)c(OC)c2)cc1Cl`: the Ratio amounted to 0.8261.

As to `COc1ccc(CNC2CCN(c3ccc(NC(=O)c4cccc(Cl)c4)cc3)CC2)cc1OC`, the Ratio was 1.145.

With `COCCN(C(=O)Cc1cccs1)C(C(=O)NCc1ccc(OC)cc1)c1ccc(C(C)C)cc1` (centres undefined), the Ratio was found to be 0.8315.

As for `Cc1ccc(CSCc2ccc(C(=O)NC3CC3)o2)cc1`, the Ratio is listed as 0.8621.

Consider `CC(NCc1ccccc1)c1cc(Cl)ccc1O` (centres undefined), for which the Ratio was found to be 0.6957.

On to `CN1CCN(c2c3c(c(C#N)c4nc5ccccc5n24)CCC3)CC1`, for which the Ratio worked out at 1.032.

Consider `COc1ccc2c(c1)OC(O)(C(F)(F)C(F)(F)F)CC2=O` (centres undefined), for which the Ratio amounted to 0.9.

`FC(F)(F)c1cccc(CNC2CCN(CCc3ccccc3)CC2)c1`: the Ratio was found to be 0.9344.

On to `Oc1ccc(Cl)cc1CNc1nc2ccccc2[nH]1`, for which the Ratio stood at 1.068.

In the case of `CCOc1cc(Cl)c(C(C)NC(=O)c2ccccc2)cc1OCC` (centres undefined), the Ratio turned out to be 0.9848.

As for `O=C(c1ccccc1F)N(Cc1ccc(Cl)cc1)c1ccccn1`, the Ratio was determined as 0.7857.

`COc1ccc(C(=O)Nc2ccc(Cl)cc2C(=O)Nc2ccncc2)cc1`: the Ratio was 0.8104.

Take `O=C(Nc1ccc(CN2CCOCC2)cc1)c1ccc(-c2ccc(Br)cc2)o1`: the Ratio worked out at 0.6519.

As for `CC(=O)NCCc1nc2ccccc2n1Cc1ccc(C(C)C)cc1`, the Ratio is 1.018.

As to `O=C(Nc1ccc(Cl)cc1)N1CCN(c2ccc3nncn3n2)CC1`, the Ratio is on record as 0.8112.

`CN(C)c1ccc(-c2nc3cc(N)ccc3[nH]2)cc1`: the Ratio turned out to be 1.036.

Consider `c1ccc2cc3c(Nc4ccc(N5CCOCC5)cc4)ccnc3cc2c1`, for which the Ratio is listed as 0.7931.

As for `O=C(CSc1ccc2nnc(-c3cccc(F)c3)n2n1)Nc1ccc2c(c1)OCO2`, the Ratio worked out at 0.7344.

As for `Cc1c(C)n(Cc2ccc(F)cc2)c2ccc(C(=O)NCc3ccco3)cc12`, the Ratio is listed as 1.212.

Regarding `CCN(CC)c1ccc(NC(=O)c2cccs2)cc1`, the Ratio was 1.

With `CCCCNCC(O)(c1ccc(Cl)cc1)c1ccc(Cl)cc1`, the Ratio came out at 1.074.

For `CCCC(c1nnnn1C1CCCCC1)N1CCN(C(=O)c2ccco2)CC1.Cl` (centres undefined), the Ratio is given as 1.023.

`CCOC(=O)c1cn(CC)c2cc(N3CCCCC3)c(F)cc2c1=O`: the Ratio came to 0.6824.

`CC(C)(C)C(=O)Nc1ccc(C(=O)Nc2cccc(-c3nc4ccccc4[nH]3)c2)cc1`: the Ratio was 0.7684.

Regarding `COc1ccc(-c2nonc2NC(=O)c2cccc(C)c2)cc1OC`, the Ratio is listed as 1.066.

On to `COc1cccc(-c2nn(C)c3sc(C(=O)NCCN4CCN(c5ccccc5F)CC4)cc23)c1`, for which the Ratio was found to be 0.7703.

Regarding `Cc1ccc(CN2CCC(C(=O)Nc3ccc(-c4cc5ccccc5[nH]4)cc3)CC2)o1`, the Ratio is recorded as 0.8636.

With `Cc1cc(C)c2nc(N3CCC(C(=O)NCCCN4CCC(N5CCCCC5)CC4)CC3)sc2c1`, the Ratio stood at 0.8033.

Turning to `CCn1c(SCC(=O)Nc2cc(C(F)(F)F)ccc2Cl)nc2ccccc2c1=O`, the Ratio came to 1.

In the case of `Cc1ccc(Cn2c(N3CCC(C(=O)NCc4cccs4)CC3)nc3ccccc32)cc1`, the Ratio is 1.032.

`O=C(Nc1ccsc1C(=O)NC1CCCCC1)c1ccc(F)cc1`: the Ratio is on record as 0.9369.

On to `O=C(Nc1ccc(Cl)cc1C(=O)Nc1ccncc1)c1ccc(Cl)cc1Cl`, for which the Ratio came out at 0.7485.

As to `O=C(Nc1cccc(C(F)(F)F)c1)c1cc(Cl)ccc1O`, the Ratio is listed as 0.9697.

`CC(C)(C)c1ccc(C(=O)Nc2nc3ccccc3s2)cc1`: the Ratio was found to be 0.8302.

With `CCOc1cccc2sc(N(Cc3cccnc3)C(=O)C3CCCCC3)nc12`, the Ratio was 0.8788.

`COc1ccccc1CNC(=O)C1c2ccccc2C(=O)N(CC(C)C)C1c1cccs1` (centres undefined): the Ratio stood at 1.038.

On to `CCOc1ccc(-c2nonc2NC(=O)c2cccc(C)c2)cc1OCC`, for which the Ratio amounted to 0.6977.

Turning to `COc1ccc(C2N(C)c3ccccc3N2C)cc1`, the Ratio is reported as 0.8737.

Regarding `CCN(CC)c1cc(C)c2cc(NC(=O)c3cccc(OC)c3)ccc2n1`, the Ratio amounted to 1.095.

Turning to `CC(C)(C)CC(C)(C)NCC(O)COc1ccc2c(c1)CCC2.Cl` (centres undefined), the Ratio is 1.052.

In the case of `CCOc1ccc(/C=C/c2nc(=O)c3ccccc3o2)cc1`, the Ratio is reported as 0.7714.

As to `O=C(Nc1ccccc1O)c1ccc(-c2ccc(Cl)cc2Cl)o1`, the Ratio worked out at 0.8413.

For the molecule `CC(C)OCc1cc(CN2CCN(c3cccc(Cl)c3)CC2)c(O)c2ncccc12`, the Ratio is 1.015.

As for `O=C(Nc1nc(-c2ccccn2)cs1)c1ccccc1Br`, the Ratio was 0.987.

In the case of `O=C(Nc1ccc(F)c(Cl)c1)Nc1ccc(Cl)c(Cl)c1`, the Ratio is on record as 1.268.

On to `CC(O)(c1ccc(Cl)cc1)C(CN1CCCCC1)c1ccccc1.Cl` (centres undefined), for which the Ratio is on record as 0.9286.

Consider `CCCCc1ccc(NS(=O)(=O)c2cc3c4c(c2)CCN4C(=O)CC3)cc1`, for which the Ratio turned out to be 0.6295.

On to `CCOc1ccc(-c2nc(NC(=O)c3cccc(S(C)(=O)=O)c3)sc2C)cc1`, for which the Ratio came out at 0.4367.

In the case of `CCOc1ccccc1CNC(=O)C1c2ccccc2C(=O)N(CC(C)C)C1c1cccs1` (centres undefined), the Ratio was determined as 1.143.

Regarding `CCOC(=O)c1ccc2nc(-c3ccccc3)cc(O)c2c1`, the Ratio is recorded as 0.3465.

In the case of `COc1ccccc1N1CCN(C(CNS(=O)(=O)c2ccc(Cl)cc2)c2cccnc2)CC1` (centres undefined), the Ratio stood at 0.8506.

`CCCc1c(C)nc2ccccc2c1O`: the Ratio stood at 0.9683.

For the molecule `CCOc1c(Cl)cc(CNC(C)C(O)c2ccccc2)cc1OC` (centres undefined), the Ratio was 1.031.

Turning to `COc1ccc(C2Sc3ccccc3N=C3C2=C(O)c2ccccc23)cc1` (centres undefined), the Ratio worked out at 1.228.

On to `CCCN(CCC)CCCNC(=O)c1cc2c(-c3ccc(OC)c(OC)c3)nn(C)c2s1`, for which the Ratio is on record as 1.186.

Consider `CCN(CC)CCCNc1nc(-c2ccc(Cl)cc2)nc2ccccc12`, for which the Ratio turned out to be 1.055.

In the case of `CN1c2ccccc2N(C)C1c1ccc2c(c1)OCO2`, the Ratio is 0.7561.

In the case of `Cc1ccc(Nc2nc(NCCO)c3ccccc3n2)cc1C`, the Ratio is 0.8028.

On to `O=C(NCC1Cc2cccc(-c3ccncc3)c2O1)c1csc2c1CCCC2` (centres undefined), for which the Ratio was 0.6487.

In the case of `CC1CCCCN1CCCNC(=O)c1ccc2c(c1)sc1nc(-c3ccc(F)cc3)cn12` (centres undefined), the Ratio is listed as 1.167.

`COc1ccc(NC(=O)C2c3ccccc3C(=O)N(CC(C)C)C2c2cccs2)cc1` (centres undefined): the Ratio is on record as 1.197.

Consider `C=C(C)CCC(C)N1CCC(N2CCC(C(=O)NCCc3ccccc3)CC2)CC1` (centres undefined), for which the Ratio is recorded as 0.756.

For the molecule `C=CCc1c(C)nc2ccccc2c1O`, the Ratio turned out to be 0.9595.
